In ChEMBL document CHEMBL1201862, “PubChem BioAssay data set” (2004):
The source made the active and inactive calls.

Assays:
[1] = biological target: T1, Heat shock factor protein 1 (Mus musculus, UniProt P38532); experiment: inhibition of MG132-induced HSE-luciferase signal, confirmation, cell-based, NIH3T3, luminescence, dose retest (AID 2382); assay type: functional;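 further: NIH3T3 fibroblasts with HSF1-driven luciferase reporter stressed by proteasome inhibitor MG132; luminescence from HSF1-driven luciferase expression after 8 hours of MG132 stress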
T1 sequence (P38532 whole entry): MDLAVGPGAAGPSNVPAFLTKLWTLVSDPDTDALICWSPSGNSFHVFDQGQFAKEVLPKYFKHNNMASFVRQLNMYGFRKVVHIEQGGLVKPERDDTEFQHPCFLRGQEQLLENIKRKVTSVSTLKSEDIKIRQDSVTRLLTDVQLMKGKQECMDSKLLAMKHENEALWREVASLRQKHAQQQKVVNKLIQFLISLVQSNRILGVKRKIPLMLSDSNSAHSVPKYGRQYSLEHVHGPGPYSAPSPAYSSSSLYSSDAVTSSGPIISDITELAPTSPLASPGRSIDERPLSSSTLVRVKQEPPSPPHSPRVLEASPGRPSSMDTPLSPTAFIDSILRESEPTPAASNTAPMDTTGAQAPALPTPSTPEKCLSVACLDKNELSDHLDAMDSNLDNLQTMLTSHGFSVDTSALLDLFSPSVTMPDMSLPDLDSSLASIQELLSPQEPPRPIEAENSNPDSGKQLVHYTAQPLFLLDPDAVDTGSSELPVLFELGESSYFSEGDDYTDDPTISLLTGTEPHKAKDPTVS

Paired box protein Pax-8 = Paired box protein Pax-8 (Homo sapiens, UniProt Q06710); experiment: inhibitors of PAX8-driven TPO luciferase reporter, dose response, RMG-I cells, cherry-pick (AID 687027); assay type: functional, cell-based;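 further: luciferase reporter driven by Pax8 target thyroperoxidase promoter measured by SteadyGlo luminescence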
[2] = biological target: T2, Carboxy-terminal domain RNA polymerase II polypeptide A small phosphatase 1 (Homo sapiens, UniProt Q9GZU7); experiment: inhibitors of CTDSP1, concentration-response testing, biochemical assay, absorbance-based, actives from ultra-high-throughput screening (AID 540297); assay type: functional
T2 sequence (Q9GZU7 whole entry): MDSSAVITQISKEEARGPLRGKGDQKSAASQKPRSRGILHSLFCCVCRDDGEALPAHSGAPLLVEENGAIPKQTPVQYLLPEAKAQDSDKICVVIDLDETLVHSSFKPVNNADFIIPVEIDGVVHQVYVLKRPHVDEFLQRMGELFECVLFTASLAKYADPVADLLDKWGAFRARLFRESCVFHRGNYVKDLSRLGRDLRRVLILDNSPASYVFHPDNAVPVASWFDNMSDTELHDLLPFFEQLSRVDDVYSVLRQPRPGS

[3] = HEp-2 cell cytotoxicity, dose response, cytotoxicity control for RSV inhibitor project, HTS (AID 2410); assay type: functional; conditions: human respiratory syncytial virus
[4] = Luminescence Cell-Based Dose Retest to Confirm Inhibitors of Cancer Stem Cells. [Related pubchem assays (depositor defined):AID2717, AID2721]; assay type: functional; conditions: Homo sapiens
[5] = biological target: T3, Rac GTPase-activating protein 1 (Homo sapiens, UniProt Q9H0H5); experiment: MgcRacGAP GTPase-activating activity inhibitors, confirmation, biochemical, ADP Hunter fluorescence, primary and confirmatory (AID 624330); assay type: functional
T3 sequence (Q9H0H5 whole entry): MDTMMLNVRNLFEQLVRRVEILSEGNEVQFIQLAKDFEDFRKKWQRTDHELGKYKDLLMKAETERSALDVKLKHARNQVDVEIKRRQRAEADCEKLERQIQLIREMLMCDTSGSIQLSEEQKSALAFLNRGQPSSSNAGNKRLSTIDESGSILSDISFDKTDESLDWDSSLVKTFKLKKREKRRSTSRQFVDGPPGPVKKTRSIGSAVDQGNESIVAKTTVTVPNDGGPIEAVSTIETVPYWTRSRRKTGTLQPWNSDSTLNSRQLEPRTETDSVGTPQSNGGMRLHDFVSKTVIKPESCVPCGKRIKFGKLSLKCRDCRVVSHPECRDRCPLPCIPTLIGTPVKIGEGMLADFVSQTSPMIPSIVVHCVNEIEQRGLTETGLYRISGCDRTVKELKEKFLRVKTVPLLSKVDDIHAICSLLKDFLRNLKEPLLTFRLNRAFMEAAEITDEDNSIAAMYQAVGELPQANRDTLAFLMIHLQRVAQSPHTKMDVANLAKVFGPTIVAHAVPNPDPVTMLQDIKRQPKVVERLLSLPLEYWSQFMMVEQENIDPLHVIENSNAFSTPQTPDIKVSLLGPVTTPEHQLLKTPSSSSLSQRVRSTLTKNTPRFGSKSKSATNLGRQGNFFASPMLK

Large T antigen = Large T antigen (Simian virus 40, UniProt P03070); assay type: functional, Betapolyomavirus macacae;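 further: Confirmatory-stage PubChem screen for compounds that inhibit SV40 T antigen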
[6] = inhibitors of intracellular T. cruzi replication, confirmation, NIH3T3 host cells, beta-gal luminescence (AID 2044); assay type: functional, cell-based;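 further: intracellular parasites grown in NIH/3T3 mouse fibroblasts as host cells; luminescent beta-galactosidase reporter signal from transgenic T. cruzi replicating inside host cells; inhibitors lower the luminescence signal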
[7] = cytotoxicity toward NIH3T3 fibroblasts, dose response, counter-screen, cell-based, ATP luminescence, mouse fibroblasts (AID 2010); assay type: functional;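 further: cells exposed to compound for about 90 hours before reading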
[8] = biological target: T4, Corticotropin-releasing factor receptor 2/Corticotropin-releasing factor-binding protein (Homo sapiens, UniProt P24387+Q13324); experiment: activators of CRF receptor 2 with binding protein – uHTS hits, confirmation (AID 602473); assay type: functional; conditions: read-out: EC50_Mean
T4 sequence (Q13324 whole entry): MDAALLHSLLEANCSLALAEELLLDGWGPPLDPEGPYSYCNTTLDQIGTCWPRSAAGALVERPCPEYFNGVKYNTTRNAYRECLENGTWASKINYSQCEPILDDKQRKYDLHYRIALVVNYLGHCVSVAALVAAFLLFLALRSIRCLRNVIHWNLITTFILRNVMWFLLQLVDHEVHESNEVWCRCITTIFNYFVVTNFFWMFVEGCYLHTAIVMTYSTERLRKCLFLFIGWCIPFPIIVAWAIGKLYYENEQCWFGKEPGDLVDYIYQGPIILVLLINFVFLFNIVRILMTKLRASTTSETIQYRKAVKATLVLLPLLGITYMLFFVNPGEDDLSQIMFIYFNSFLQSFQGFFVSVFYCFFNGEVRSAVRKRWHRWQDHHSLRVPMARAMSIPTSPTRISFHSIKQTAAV
T4 sequence (P24387 whole entry): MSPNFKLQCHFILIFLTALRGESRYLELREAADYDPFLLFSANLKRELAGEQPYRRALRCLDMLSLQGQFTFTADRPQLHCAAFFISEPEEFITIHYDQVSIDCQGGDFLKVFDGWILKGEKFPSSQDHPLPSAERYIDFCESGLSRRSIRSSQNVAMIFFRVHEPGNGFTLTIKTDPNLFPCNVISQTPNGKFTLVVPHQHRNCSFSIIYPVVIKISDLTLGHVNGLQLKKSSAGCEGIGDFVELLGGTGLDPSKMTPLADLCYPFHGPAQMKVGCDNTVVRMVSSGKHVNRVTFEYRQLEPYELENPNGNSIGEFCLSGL

[9] = biological target: T4, Corticotropin-releasing factor receptor 2/Corticotropin-releasing factor-binding protein; experiment: Dose Response confirmation of uHTS hits for small molecule antagonists of the CRF-binding protein and CRF-R2 receptor complex.; assay type: functional; conditions: read-out: IC50_Mean
[10] = growth suppression of beta-catenin-knockout colon cells, dose response, cell-based, HCT116, human colon tumor (AID 1045); assay type: functional;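 further: HCT116 colon tumor cells with beta catenin knocked out; cells exposed to compound for 60 hours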
[11] = Luminescence Cell-Based Dose Response HTS to Identify Activators of Luciferase Translation or Activity in H4 […] Cells. [Related pubchem assays: 1829 (Project Summary), 1814 (Primary HTS)]; assay type: functional
[12] = biological target: FAD-linked sulfhydryl oxidase ALR (Homo sapiens, UniProt P55789); experiment: inhibitors of human ALR sulfhydryl oxidase, dose response, biochemical, H2O2 detection, luminescence, cherry-pick (AID 493248)
[13] = Luminescence Cell-Based Dose Confirmation HTS to Identify Activators of 5'UTR Stem-Loop Driven Alpha-Synuclein mRNA Translation in H4 Neuroglioblastoma Cells. [Related pubchem assays: 1829 (Project Summary), 1814 (Primary HTS)]; assay type: functional
H4 = experiment: Luminescence Cell-Based Dose Response HTS to Identify Activators of 5'UTR Stem-Loop Driven Prion Protein mRNA Translation in H4 Neuroglioblastoma Cells. [Related pubchem assays: 1829 (Project Summary), 1814 (Primary HTS)]; assay type: functional; conditions: Homo sapiens
Cytochrome P450 2D6 = Cytochrome P450 2D6 (Homo sapiens, UniProt P10635);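 further: CYP2D6 member of a cytochrome P450 panel assay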
Sequence of Cytochrome P450 2D6 (P10635 whole entry): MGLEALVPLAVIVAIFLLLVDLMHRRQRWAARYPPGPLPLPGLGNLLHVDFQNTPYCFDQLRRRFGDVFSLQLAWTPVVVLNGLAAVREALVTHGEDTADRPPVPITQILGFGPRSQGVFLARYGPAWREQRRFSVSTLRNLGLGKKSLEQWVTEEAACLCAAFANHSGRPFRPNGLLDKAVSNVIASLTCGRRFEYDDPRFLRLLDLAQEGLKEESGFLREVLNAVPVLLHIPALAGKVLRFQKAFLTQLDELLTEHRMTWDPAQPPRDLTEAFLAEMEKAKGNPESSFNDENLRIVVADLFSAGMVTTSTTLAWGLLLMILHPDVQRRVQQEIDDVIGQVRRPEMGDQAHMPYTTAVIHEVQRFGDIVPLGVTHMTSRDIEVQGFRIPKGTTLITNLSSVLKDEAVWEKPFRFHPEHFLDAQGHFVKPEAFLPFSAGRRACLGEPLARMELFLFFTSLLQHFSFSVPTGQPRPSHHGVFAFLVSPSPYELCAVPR

Sequence of Paired box protein Pax-8 (Q06710 whole entry, the tested form may be a part): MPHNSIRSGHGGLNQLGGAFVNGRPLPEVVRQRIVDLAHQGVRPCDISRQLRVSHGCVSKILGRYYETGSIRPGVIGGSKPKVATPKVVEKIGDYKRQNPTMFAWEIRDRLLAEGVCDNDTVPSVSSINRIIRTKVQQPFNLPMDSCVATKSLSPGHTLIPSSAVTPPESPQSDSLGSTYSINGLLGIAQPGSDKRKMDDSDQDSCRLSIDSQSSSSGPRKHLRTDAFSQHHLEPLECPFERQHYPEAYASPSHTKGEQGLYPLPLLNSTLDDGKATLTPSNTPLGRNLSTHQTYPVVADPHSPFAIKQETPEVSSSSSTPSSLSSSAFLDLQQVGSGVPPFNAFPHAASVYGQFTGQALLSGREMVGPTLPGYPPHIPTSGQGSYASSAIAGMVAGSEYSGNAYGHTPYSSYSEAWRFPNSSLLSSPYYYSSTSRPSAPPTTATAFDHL
Sequence of Large T antigen (P03070 whole entry): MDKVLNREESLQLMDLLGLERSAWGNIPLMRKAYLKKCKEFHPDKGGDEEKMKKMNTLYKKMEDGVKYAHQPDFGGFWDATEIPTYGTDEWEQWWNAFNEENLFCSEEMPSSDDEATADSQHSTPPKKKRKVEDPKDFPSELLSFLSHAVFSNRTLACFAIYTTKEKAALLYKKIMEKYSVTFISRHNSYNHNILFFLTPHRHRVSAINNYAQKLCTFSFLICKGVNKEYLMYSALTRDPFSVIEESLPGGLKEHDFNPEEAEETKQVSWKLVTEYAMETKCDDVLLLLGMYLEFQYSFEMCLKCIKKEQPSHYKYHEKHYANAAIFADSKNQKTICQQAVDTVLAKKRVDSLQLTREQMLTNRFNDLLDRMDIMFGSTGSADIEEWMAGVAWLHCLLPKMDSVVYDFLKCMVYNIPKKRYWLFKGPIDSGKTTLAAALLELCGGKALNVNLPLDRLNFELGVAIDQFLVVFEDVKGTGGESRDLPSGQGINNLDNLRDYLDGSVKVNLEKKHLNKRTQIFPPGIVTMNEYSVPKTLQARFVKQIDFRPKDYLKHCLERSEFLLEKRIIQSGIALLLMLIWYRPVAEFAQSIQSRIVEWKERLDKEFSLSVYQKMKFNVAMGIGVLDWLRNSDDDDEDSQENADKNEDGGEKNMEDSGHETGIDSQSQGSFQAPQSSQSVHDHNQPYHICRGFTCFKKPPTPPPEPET
Sequence of FAD-linked sulfhydryl oxidase ALR (P55789 whole entry): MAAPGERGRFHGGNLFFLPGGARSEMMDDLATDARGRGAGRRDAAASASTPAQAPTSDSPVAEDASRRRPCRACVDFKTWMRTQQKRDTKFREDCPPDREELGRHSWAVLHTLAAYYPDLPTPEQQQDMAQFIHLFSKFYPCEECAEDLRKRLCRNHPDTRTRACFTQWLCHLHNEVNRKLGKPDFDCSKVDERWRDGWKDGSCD

COc1cc(O)nc(SCC(=O)Nc2nc3c(s2)CCCC3)n1
EC50 [1]: > 195 µM (not active)

O=C(CCl)Nc1cc2[nH]c(O)nc2cc1Br
AC50 (Paired box protein Pax-8): 3.95 µM (active)

CCOC(=O)CSC1=C(C#N)C(c2ccccc2C)C2=C(O)CCCC2=N1 (configuration not stated)
EC50 [1]: > 195 µM (not active)

O=c1oc2c(-c3ccc([N+](=O)[O-])cc3)cc(O)cc2s1
IC50 [2]: 6.91 µM (active)

Cc1ccc(C)c2nc(O)c(CCNC(=O)C(C)(C)C)cc12
EC50 [1]: > 195 µM (not active)

CN(c1ccccc1)S(=O)(=O)c1cccc(NC(=O)CN2CCc3ccccc3C2)c1
CC50 [3]: 22.4 µM (active)

O=C(O)c1cccc(-n2cccc2/C=C2\SC(=O)N(Cc3ccccc3F)C2=O)c1
IC50 [2]: 4.62 µM (active)

C=C(C)COc1ccc(-c2n[nH]cc2-c2ccc(OC)cc2)c(O)c1
CC50 [3]: 14.8 µM (active)
AC50 [4]: 7.79 µM (active)

Cc1nc(Sc2ccc(Cl)cc2)c(C#N)c(C)c1[N+](=O)[O-]
CC50 [3]: 13.2 µM (active)

CN1C(=O)NC(c2ccc(O)cc2)C2=C1CN(c1ccc(O)cc1)C2=O (configuration not stated)
IC50 [5]: 34.6 µM (active)
IC50 (Large T antigen): 8.64 µM (active)

CCCN(CCC)S(=O)(=O)c1ccc(NC(=O)c2cc(C(=O)OC)cc([N+](=O)[O-])c2)cc1
EC50 [6]: 0.323 µM (active)
EC50 [7]: > 60 µM (inconclusive)
EC50 [1]: > 195 µM (not active)

Cc1cc(SCC(=O)Nc2cccc(S(N)(=O)=O)c2)c(C)cc1Br
EC50 [8]: > 53 µM (inactive)
IC50 [9]: > 47.1 µM (inactive)

CC(=O)ON1C(C)(C)CC(OC(=O)c2ccccc2)CC1(C)C
EC50 [10]: 124 µM (active)

CCOC(=O)C1=C(O)/C(=C\c2ccc(O)c(OCC)c2)N=C1C
IC50 [5]: 43.3 µM (active)
IC50 (Large T antigen): 9.94 µM (active)

CS(=O)(=O)N(CC(=O)NCCSC1CCCCC1)c1ccc2c(c1)OCO2
EC50 [1]: > 195 µM (not active)

COc1cc(C#CC#CCN2CCCCC2)ccc1O
EC50 [11]: 6.95 µM (active)
AC50 [12]: 3.57 µM (active)
EC50 [13]: 6.87 µM (active)
IC50 (Large T antigen): 10.3 µM (active)
EC50 (H4): > 120 µM (not active)

CCC1=CC(c2ccccc2)n2ncnc2N1 (configuration not stated)
EC50 [1]: > 195 µM (not active)

Nc1nc(-c2ccc3c(c2)OCCO3)cs1
EC50 [8]: > 53 µM (inactive)
IC50 [9]: > 47.1 µM (inactive)

COc1ccc(NC(=O)CN2CCC3(O)CCCCC3C2c2cc(OC)ccc2OC)cc1 (configuration not stated)
EC50 [8]: > 53 µM (inactive)
IC50 [9]: > 47.1 µM (inactive)

COc1cc(/C=C/C(=O)NC(C)C2CC3CCC2C3)cc(OC)c1OC (configuration not stated)
EC50 [1]: > 195 µM (not active)

CC(C)CNC(=O)CN1c2cccc3cccc(c23)S1(=O)=O
EC50 [8]: > 53 µM (inactive)
IC50 [9]: > 47.1 µM (inactive)

O=[N+]([O-])c1cccc(CN2[C@@H](Cc3ccccc3)COCCS2(=O)=O)c1
EC50 [1]: > 195 µM (not active)

O=C(Nc1ccc2c(c1)CCCN2C(=O)c1cccs1)c1c(F)cccc1Cl
CC50 [3]: 24.1 µM (active)

Cc1cccc2cc(CN(CC3CCCO3)C(c3nnnn3Cc3ccco3)C(C)C)c(O)nc12 (configuration not stated)
CC50 [3]: 16.8 µM (active)

CCCC1=Nc2nc(C)nn2C(c2cccnc2)/C1=C(\O)OCC (configuration not stated)
EC50 [8]: > 53 µM (inactive)
IC50 [9]: > 47.1 µM (inactive)

CCOC(=O)C1(C(=O)OCC)CCN(S(=O)(=O)c2ccccc2)CC1
EC50 [8]: > 53 µM (inactive)
IC50 [9]: > 47.1 µM (inactive)

Cc1ccc(S(=O)(=O)NN=Cc2c(O)ccc3ccccc23)cc1
EC50 [8]: > 53 µM (inactive)
IC50 [9]: > 47.1 µM (inactive)

COc1ccc(S(=O)(=O)N2CCCCN3[C@H](C2)[C@@H](c2ccc(C#CC(C)C)cc2)[C@@H]3CO)cc1
AC50 (Paired box protein Pax-8): 6.14 µM (active)

CC(C)CC#Cc1ccc2c(c1)O[C@@H](CN(C)Cc1ccncc1)[C@H](C)CN([C@@H](C)CO)S2(=O)=O
AC50 (Paired box protein Pax-8): 5.97 µM (active)

C[C@@H]1CN([C@@H](C)CO)C(=O)c2cc(NS(=O)(=O)c3ccc(Cl)cc3)ccc2O[C@@H](C)CCCCO[C@H]1CN(C)Cc1ccc(C(F)(F)F)cc1
AC50 (Paired box protein Pax-8): 8.29 µM (active)

COc1ccccc1S(=O)(=O)N(C)C[C@@H]1Oc2cc(C#CCC3CCCC3)ccc2S(=O)(=O)N([C@@H](C)CO)C[C@@H]1C
AC50 (Paired box protein Pax-8): 6.16 µM (active)

N#C/C(=C\c1ccc(O)c(O)c1)C(=O)NCCc1ccccc1
AC50 (Cytochrome P450 2D6): 39.8 µM (inconclusive)
IC50 (Large T antigen): 7.1 µM (active)

CN(C)c1ccc(/C=N/Nc2ccc(-n3ccnc3)nn2)cc1
AC50 [12]: 3.85 µM (active)
EC50 [1]: > 195 µM (not active)

CCOC(=O)C1CCCN(c2nc3ccccc3nc2C(C#N)C(=O)OCC)C1 (configuration not stated)
CC50 [3]: 33.7 µM (active)
